What was measured:
Settings in all cases: 72 h
Caco-2 [1] = experiment: cell viability relative to DMSO; higher = less toxic
Calu-3 [2] = experiment: as above
HepG2 [3] = experiment: as above
U2OS [4] = experiment: as above
Vero E6 [5] = experiment: as above
Caco-2 [6] = experiment: relative viability EC50 (midpoint between 100% and the lowest measured viability); higher = less toxic
Calu-3 [7] = experiment: as above
HepG2 [8] = experiment: as above
U2OS [9] = experiment: as above
Vero E6 [10] = experiment: as above
Caco-2 [11] = experiment: drug sensitivity score (DSS) for viability; higher = more toxic; extreme values may be limits of the assay
Calu-3 [12] = experiment: as above
HepG2 [13] = experiment: as above
U2OS [14] = experiment: as above
Vero E6 [15] = experiment: as above

SMILES	cell viability (Caco-2 [1]; 1 nM) [%]	cell viability (Caco-2 [1]; 10 nM) [%]	cell viability (Caco-2 [1]; 100 nM) [%]	cell viability (Caco-2 [1]; 1000 nM) [%]	cell viability (Caco-2 [1]; 10000 nM) [%]	cell viability (Calu-3 [2]; 1 nM) [%]	cell viability (Calu-3 [2]; 10 nM) [%]	cell viability (Calu-3 [2]; 100 nM) [%]	cell viability (Calu-3 [2]; 1000 nM) [%]	cell viability (Calu-3 [2]; 10000 nM) [%]	cell viability (HepG2 [3]; 1 nM) [%]	cell viability (HepG2 [3]; 10 nM) [%]	cell viability (HepG2 [3]; 100 nM) [%]	cell viability (HepG2 [3]; 1000 nM) [%]	cell viability (HepG2 [3]; 10000 nM) [%]	cell viability (U2OS [4]; 1 nM) [%]	cell viability (U2OS [4]; 10 nM) [%]	cell viability (U2OS [4]; 100 nM) [%]	cell viability (U2OS [4]; 1000 nM) [%]	cell viability (U2OS [4]; 10000 nM) [%]	cell viability (Vero E6 [5]; 1 nM) [%]	cell viability (Vero E6 [5]; 10 nM) [%]	cell viability (Vero E6 [5]; 100 nM) [%]	cell viability (Vero E6 [5]; 1000 nM) [%]	cell viability (Vero E6 [5]; 10000 nM) [%]	relative viability EC50 (Caco-2 [6]) [µM]	relative viability EC50 (Calu-3 [7]) [µM]	relative viability EC50 (HepG2 [8]) [µM]	relative viability EC50 (U2OS [9]) [µM]	relative viability EC50 (Vero E6 [10]) [µM]	drug sensitivity score (Caco-2 [11])	drug sensitivity score (Calu-3 [12])	drug sensitivity score (HepG2 [13])	drug sensitivity score (U2OS [14])	drug sensitivity score (Vero E6 [15])
CCCCCOC(=O)Nc1nc(=O)n([C@@H]2O[C@H](C)[C@@H](O)[C@H]2O)cc1F [capecitabine]	107	110	103	96.1	106	99	110	91.8	98.6	101	97	104	104	99.9	96.3	96.7	103	94.3	92.6	101	102	101	99.7	95	95.6	> 10	> 10	> 10	> 10	> 10	0	0	0	0	0
C=CC1=C(C(=O)O)N2C(=O)[C@@H](NC(=O)/C(=N\O)c3csc(N)n3)[C@H]2SC1 [cefdinir]	100	98.9	90.3	101	99.2	101	91.8	92.3	102	101	110	92.9	101	93.1	97.5	94	104	94.8	102	100	104	100	99.8	97.7	99.9	> 10	> 10	> 10	> 10	> 10	0	0	0	0	0
CO/N=C(\C(=O)N[C@@H]1C(=O)N2C(C(=O)O)=CCS[C@H]12)c1csc(N)n1 [ceftizoxim]	89.5	100	92.1	103	95.7	97.2	93.6	103	105	93.4	97.5	96.1	107	103	103	97.7	99.2	94.5	98.8	98.7	102	99.2	95.2	95.6	105	> 10	> 10	> 10	> 10	> 10	0	0	0	0	0
CC(C)(O)C(Cl)(Cl)Cl [chlorobutanol]	95	107	98.7	85.2	98.1	105	107	104	110	98.9	110	96.8	105	96.1	110	99.7	101	96.5	98.3	96.5	102	96.9	100	102	102	> 10	> 10	> 10	> 10	> 10	0	0	0	0	0
C=C1CC[C@H](O)C/C1=C/C=C1\CCC[C@]2(C)[C@@H]([C@H](C)CCCC(C)C)CC[C@@H]12 [cholecalciferol]	95.6	88.2	101	103	144	100	102	96.5	108	95.5	90.3	82.4	92.8	93.4	84.6	94.6	103	96.4	100	99.4	92.1	85.5	102	93.8	120	> 10	> 10	> 10	> 10	> 10	0	0	0	0	0
CCn1nc(C(=O)O)c(=O)c2cc3c(cc21)OCO3 [cinoxacin]	99.3	100	100	106	98.3	99.3	98.6	89.4	93.9	98.7	100	86.1	110	85.1	103	95.1	97.3	94.2	98.5	99.5	91.4	102	92.1	89.4	102	> 10	> 10	> 10	> 10	> 10	0	0	0	0	0
Cn1c(CNc2ccc(C(=N)N)cc2)nc2cc(C(=O)N(CCC(=O)O)c3ccccn3)ccc21 [dabigatran]	109	97.1	101	94	95.5	114	99.6	90.1	93.7	92.8	103	95.8	104	97.8	91.7	104	99.3	101	97.1	98.1	96.9	96.4	99.1	101	99	> 10	> 10	> 10	> 10	> 10	0	0	0	0	0
CC1(C)O[C@@H]2C[C@H]3[C@@H]4CCC5=CC(=O)C=C[C@]5(C)[C@H]4[C@@H](O)C[C@]3(C)[C@]2(C(=O)CO)O1 [desonide]	103	106	95	112	120	124	92.5	95	101	96.9	102	101	93.9	94.6	94.6	99.5	94.9	101	93.6	97.9	102	102	101	108	99.5	> 10	> 10	> 10	> 10	> 10	0	0	0	0	0
O=c1[nH]cnc2c1ncn2[C@H]1CC[C@@H](CO)O1 [didanosine]	107	88.7	97.9	85.3	108	96.3	85	114	106	99.9	99.6	84.8	90.7	90.8	105	99.4	93.6	102	101	107	96	97.3	95.2	98	107	> 10	> 10	> 10	> 10	> 10	0	0	0	0	0
O=c1[nH]c2ccccc2n1CCCN1CCC(n2c(=O)[nH]c3cc(Cl)ccc32)CC1 [domperidone]	100	96.1	96.7	92.1	94.3	102	94.6	105	106	101	94.6	96.4	92.3	104	95.7	103	90.7	97.6	95.6	94.2	90	93.8	95.8	96.6	89	> 10	> 10	> 10	> 10	> 10	0	0	0	0	0
CN(C)CC/C=C1/c2ccccc2COc2ccccc21 [doxepin]	90.4	100	97.4	102	99.6	89	101	97.9	97.7	89.9	103	85.4	115	97.4	99.3	94.9	101	98.7	102	103	100	96.8	96.7	91.1	106	> 10	> 10	> 10	> 10	> 10	0	0	0	0	0
Cc1oc(-c2ccccc2)nc1CCOc1ccc(CC2SC(=O)NC2=O)c2sccc12 (stereo not given) [edaglitazone]	104	98.6	90.4	96.1	87.2	106	102	114	97.5	102	102	107	93.6	100	88.8	99.4	93	99.2	97.4	96.9	103	102	89.4	83.7	86.7	> 10	> 10	> 10	> 10	> 10	0.1	0	0	0	2.6
CCc1nc(C)ccc1O [emoxipin]	95.1	99.6	98.1	98.6	90.9	105	111	104	96.8	105	110	108	97.4	99.6	108	102	101	106	97	103	98.1	102	97.3	92.7	93.2	> 10	> 10	> 10	> 10	> 10	0	0	0	0	0
CCOC(=O)CCC(=O)O[C@H]1[C@H](O[C@@H]2[C@@H](C)[C@H](O[C@H]3C[C@@](C)(OC)[C@@H](O)[C@H](C)O3)[C@@H](C)C(=O)O[C@H](CC)[C@@](C)(O)[C@H](O)[C@@H](C)C(=O)[C@H](C)C[C@@]2(C)O)O[C@H](C)C[C@@H]1N(C)C [erythromycin-ethylsuccinate]	87.7	114	85.5	100	99.5	101	98.5	100	101	96.3	97.8	107	101	87.5	101	102	103	96.8	106	100	112	94.8	103	100	104	> 10	> 10	> 10	> 10	> 10	0	0	0	0	0

Reference: the supplement of paper PMC13380429
